Among the test systems are UACC-257 melanoma; MOLT-4 leukemia; NCI-H522 lung; SW-620 colon; CAKI-1 renal; OVCAR-3 ovarian; SK-MEL-28 melanoma; COLO 205 colon; M14 melanoma; NCI-H226 lung.
What all share (assay): inhibition of tumour cell growth, NCI panel, 48 h

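Five compound concentrations were applied to cells in 96-well plates for 48 hours; endpoints were derived by simple linear interpolation of the resulting dose-response curve. TGI marks complete inhibition of growth.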

Turning to `CCCCCCCCCC(=O)CC(=O)c1ccc(O)cc1O`, the TGI with UACC-257 melanoma is 71.2 µM; with MOLT-4 leukemia it was 49.7 µM; in the experiment on NCI-H522 lung, 48.2 µM; in the experiment on SW-620 colon, greater than 100 µM; with CAKI-1 renal, 85.9 µM; in the experiment with OVCAR-3 ovarian, 45 µM. The TGI is greater than 100 µM in the experiment on SK-MEL-28 melanoma, greater than 100 µM in the experiment with COLO 205 colon, 54.7 µM in the experiment with M14 melanoma and 84.9 µM with NCI-H226 lung.

The values above are taken from PubChem BioAssay (NCI).
